This experiment has as its target T1, human V1a receptor (Homo sapiens, UniProt P37288).
T1 construct: host or cells: CHO cells
Nature of the experiment: Human vasopressin V1a receptor binding assay. The settings on record: hV1a CHO cell line, competition with 1 nM 3H-AVP; for IC50: read-out: V1a Binding Affinity IC50; for Ki: read-out: V1a Ki. The method, then: EXAMPLE. Human vasopressin V1a receptor binding assay. A cell line expressing the human V1a receptor in CHO cells (henceforth referred to as the hV1a cell line) was obtained from Dr. Michael Brownstein, NIMH, Bethesda, Md., USA. The hV1a cDNA sequence is described by Thibonnier et al., Journal of Biological Chemistry, 269, 3304-3310 (1994), and the expression method was the same as described by Morel et al. (1992). The hV1a cell line was grown in alpha-MEM with 10% fetal bovine serum and 250 ug/ml G418 (Gibco, Grand Island, N.Y., USA). For competitive binding assay, hV1a cells were plated into 6-well culture plate at 1:10 dilution from a confluency flask, and maintained in culture for at least two days. Culture medium was then removed, cells were washed with 2 ml binding buffer (25 mM Hepes, 0.25% BSA, 1×DMEM, PH=7.0). To each well, 990 μl binding buffer containing 1 nM 3H-AVP was added, and followed by 10 μl series diluted Example compounds dissolved in DMSO. […] 100 nM cold AVP (Sigma) was used to assess non-specific binding. Cells were incubated for 45 minutes at 37° C., assay mixture was removed and each well was washed three times with PBS (pH=7.4). 1 ml 2% SDS was added per well and plates were let sit for 30 minutes. The whole content in a well was transferred to a scintillation vial. Each well was rinsed with 0.5 ml PBS which was then added to the corresponding vial. Scintillation fluid (Ecoscint, National Diagnostics, Atlanta, Ga.) was then added at 3 ml per vial. Samples were counted in a liquid scintillation counter (Beckman LS3801). IC50 values were calculated by Prism Curve fitting software.
All of the alkanedioic esters and amides exemplified in the foregoing examples dissolved in DMSO were tested in this assay. Binding curves were generated according to methods described by Thibonnier et al. (1994). [^3H]-AVP was added to the hV1a cell cultures followed by 10-fold dilutions of each test compound.

T1 sequence (P37288 whole entry): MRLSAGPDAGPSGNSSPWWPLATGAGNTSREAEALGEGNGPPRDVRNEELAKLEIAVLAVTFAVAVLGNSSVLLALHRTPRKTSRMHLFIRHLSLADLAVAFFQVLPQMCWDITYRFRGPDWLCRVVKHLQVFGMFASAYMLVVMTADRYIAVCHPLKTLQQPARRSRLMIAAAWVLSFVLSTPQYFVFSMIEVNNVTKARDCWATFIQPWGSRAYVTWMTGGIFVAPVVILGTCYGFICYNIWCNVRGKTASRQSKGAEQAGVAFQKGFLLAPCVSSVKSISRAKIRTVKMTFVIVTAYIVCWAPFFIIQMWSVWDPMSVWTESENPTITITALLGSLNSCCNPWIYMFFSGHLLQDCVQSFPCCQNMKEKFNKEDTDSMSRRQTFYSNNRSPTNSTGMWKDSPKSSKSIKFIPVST

By IC50 is commonly meant the concentration that inhibits the measured activity by half. One may read the Ki as the dissociation constant of the complex between target and ligand, obtained from inhibition or displacement. `N#Cc1cccc(C=CC2C(N3C(=O)OCC3c3ccccc3)C(=O)N2C(CCC(=O)N2CCN(C3CCCCC3)CC2)C(=O)NC2CCCc3ccccc32)c1` (stereo not drawn) [Example 248]: the IC50 worked out at 5.3 nM and the Ki worked out at 3.3 nM.

Turning to `O=C(NC1CCCc2ccccc21)C(CCC(=O)N1CCN(C2CCCCC2)CC1)N1C(=O)C(N2C(=O)OCC2c2ccccc2)C1C=Cc1cccc(F)c1` (stereo not drawn) [Example 245], the IC50 is 1.1 nM and the Ki amounted to 0.68 nM.

For the molecule `O=C(NC1CCCc2ccccc21)C(CCC(=O)N1CCN(C2CCCCC2)CC1)N1C(=O)C(N2C(=O)OCC2c2ccccc2)C1C=Cc1cc(Cl)cc(Cl)c1` (stereo not drawn) [Example 252], the IC50 was found to be 1.8 nM and the inhibitory constant (Ki) came out at 1.1 nM.

In the case of `CCCCN(Cc1ccccc1)C(=O)[C@H](CCC(=O)N1CCN(C2CCCCC2)CC1)N1C(=O)[C@@H](N2C(=O)OC[C@@H]2c2ccccc2)[C@H]1/C=C/c1ccccc1` [Example 198], the IC50 is approximately 100 nM.

`CC(C)(NC(=O)C(CCC(=O)N1CCN(C2CCCCC2)CC1)N1C(=O)C(N2C(=O)OCC2c2ccccc2)C1C=Cc1ccccc1)c1ccccc1` (stereo not drawn) [Example 204]: the IC50 was 6 nM and the Ki was found to be 3.7 nM.

`O=C(NC(c1ccccc1)C(F)(F)F)C(CC(=O)N1CCC(N2CCCCC2)CC1)N1C(=O)C(N2C(=O)OCC2c2ccccc2)C1CCc1ccccc1` (stereo not drawn) [Example 623]: the Ki turned out to be 0.85 nM.

Take `O=C(NCc1ccccc1F)C(CC(=O)N1CCC(N2CCCCC2)CC1)N1C(=O)C(N2C(=O)OCC2c2ccccc2)C1CCc1ccccc1` (stereo not drawn) [Example 677]: the Ki was found to be 3 nM.

As for `Cc1cccc(CNC(=O)C(CCC(=O)N2CCN(C3CCCCC3)CC2)N2C(=O)C(N3C(=O)OCC3c3ccccc3)C2C=Cc2ccccc2)c1` (stereo not drawn) [Example 193], the IC50 was determined as 1.17 nM and the Ki stood at 0.72 nM.

Take `O=C(NC1(c2ccccc2)CCCC1)C(CCC(=O)N1CCN(Cc2ccccc2)CC1)N1C(=O)C(N2C(=O)OCC2c2ccccc2)C1C=Cc1ccccc1` (stereo not drawn) [Example 240]: the IC50 is 25 nM and the Ki is 15.5 nM.

For the molecule `COc1cccc(C=CC2C(N3C(=O)OCC3c3ccccc3)C(=O)N2C(CCC(=O)N2CCN(C3CCCCC3)CC2)C(=O)NC2CCCc3ccccc32)c1` (stereo not drawn) [Example 242], the IC50 turned out to be 2.2 nM and the Ki was 1.36 nM.

With “(2S)-[(4-cyclohexylpiperazinyl)carbonylethyl]-2-[3(S)-(4(S)-phenyloxazolidin-2-on-3-yl)-4(R)-(2-phenyleth-1-yl)azetidin-2-on-1-yl]acetic acid N—[(R)-1,2,3,4-tetrahydronaphth-1-yl]amide [Example 236A]”, the IC50 turned out to be 9 nM and the Ki was found to be 5.5 nM.

`CN(Cc1cccc(C(F)(F)F)c1)C(=O)C(CC(=O)N1CCC(N2CCCCC2)CC1)N1C(=O)C(N2C(=O)OCC2c2ccccc2)C1CCc1cccc(Br)c1` (stereo not drawn) [Example 617]: the inhibitory constant (Ki) came out at 0.69 nM.

In the case of `O=C(NCc1ccccc1C(F)(F)F)C(CCC(=O)N1CCN(C2CCCCC2)CC1)N1C(=O)C(N2C(=O)OCC2c2ccccc2)C1C=Cc1ccccc1` (stereo not drawn) [Example 182], the IC50 stood at 1.52 nM and the Ki is 0.93 nM.

On to `O=C(NC1CCc2ccccc21)C(CCC(=O)N1CCN(C2CCCCC2)CC1)N1C(=O)C(N2C(=O)OCC2c2ccccc2)C1C=Cc1ccccc1` (stereo not drawn) [Example 221R], for which the 50% inhibitory concentration (IC50) was found to be 5.13 nM and the inhibitory constant (Ki) was 3.14 nM.

`O=C(NCc1cccnc1)C(CCC(=O)N1CCN(C2CCCCC2)CC1)N1C(=O)C(N2C(=O)OCC2c2ccccc2)C1C=Cc1ccccc1` (stereo not drawn) [Example 209]: the IC50 came to 16 nM and the Ki was found to be 9.8 nM.

Regarding `O=C(NC1CCCc2ccccc21)C(CCC(=O)N1CCN(C2CCCCC2)CC1)N1C(=O)C(N2C(=O)OCC2c2cccc(Cl)c2)C1C=Cc1cccc(Cl)c1` (stereo not drawn) [Example 251], the IC50 worked out at 0.5 nM and the Ki worked out at 0.3 nM.

Regarding `O=C(NCc1cccs1)C(CCC(=O)N1CCN(C2CCCCC2)CC1)N1C(=O)C(N2C(=O)OCC2c2ccccc2)C1C=Cc1ccccc1` (stereo not drawn) [Example 213], the IC50 stood at 0.78 nM and the inhibition constant Ki was 0.48 nM.

Consider `O=C(NCc1cccc(C(F)(F)F)c1)C(CC(=O)N1CCN(N2CCCC2)CC1)N1C(=O)C(N2C(=O)OCC2c2ccccc2)C1C=Cc1ccccc1` (stereo not drawn) [Example 47], for which the IC50 was approximately 50 nM.

For `O=C(NCc1ccccc1Br)C(CC(=O)N1CCC(N2CCCCC2)CC1)N1C(=O)C(N2C(=O)OCC2c2ccccc2)C1CCc1ccccc1` (stereo not drawn) [Example 682], the Ki stood at 0.9 nM.

On to `O=C(NCc1ccncc1)C(CCC(=O)N1CCN(C2CCCCC2)CC1)N1C(=O)C(N2C(=O)OCC2c2ccccc2)C1C=Cc1ccccc1` (stereo not drawn) [Example 210], for which the IC50 was found to be 29.5 nM and the Ki is 18.1 nM.

As to `O=C(NCc1cc(Cl)cc(Cl)c1)C(CCC(=O)N1CCN(C2CCCCC2)CC1)N1C(=O)C(N2C(=O)OCC2c2ccccc2)C1C=Cc1ccccc1` (stereo not drawn) [Example 174], the IC50 turned out to be 1.46 nM and the Ki stood at 0.89 nM.

On to `O=C(NCc1ccccn1)C(CCC(=O)N1CCN(C2CCCCC2)CC1)N1C(=O)C(N2C(=O)OCC2c2ccccc2)C1C=Cc1ccccc1` (stereo not drawn) [Example 208], for which the half-inhibitory concentration (IC50) came out at 16.3 nM and the inhibition constant (Ki) was 10 nM.

With `O=C(NC1CCCc2ccccc21)C(CCC(=O)N1CCN(C2CCCC2)CC1)N1C(=O)C(N2C(=O)OCC2c2ccccc2)C1C=Cc1ccccc1` (stereo not drawn) [Example 241], the IC50 was 2 nM and the Ki is 1.24 nM.

For `O=C(NCc1cccc(C(F)(F)F)c1)C(CCC(=O)N1CCN(C2CCCCC2)CC1)N1C(=O)C(N2C(=O)OCC2c2ccccc2)C1C=Cc1ccccc1` (stereo not drawn) [Example 120H], the IC50 is 2.75 nM and the Ki amounted to 1.68 nM.

Consider `O=C(NCc1cccc([N+](=O)[O-])c1)C(CCC(=O)N1CCN(C2CCCCC2)CC1)N1C(=O)C(N2C(=O)OCC2c2ccccc2)C1C=Cc1ccccc1` (stereo not drawn) [Example 189], for which the IC50 came out at 1.7 nM and the Ki is 1.04 nM.

As for `COc1ccc(OC)c(CNC(=O)C(CCC(=O)N2CCN(C3CCCCC3)CC2)N2C(=O)C(N3C(=O)OCC3c3ccccc3)C2C=Cc2ccccc2)c1` (stereo not drawn) [Example 219], the IC50 is 0.63 nM and the Ki came to 0.39 nM.

For the molecule `O=C(NCc1cccc(OC(F)(F)F)c1)C(CCC(=O)N1CCN(C2CCCCC2)CC1)N1C(=O)C(N2C(=O)OCC2c2ccccc2)C1C=Cc1ccccc1` (stereo not drawn) [Example 172], the half-maximal inhibitory concentration (IC50) turned out to be 4.5 nM and the Ki was 2.78 nM.

Turning to `Cc1ccc(C2(NC(=O)C(CCC(=O)N3CCN(C4CCCCC4)CC3)N3C(=O)C(N4C(=O)OCC4c4ccccc4)C3C=Cc3ccccc3)CC2)cc1` (stereo not drawn) [Example 221AP], the Ki was found to be 3.8 nM.

On to `O=C(NC1CCCc2ccccc21)C(CCC(=O)N1CCN(C2CCCCC2)CC1)N1C(=O)C(N2C(=O)OCC2c2ccccc2)C1C=Cc1cccc(Cl)c1` (stereo not drawn) [Example 243], for which the IC50 amounted to 0.5 nM and the inhibitory constant (Ki) stood at 0.3 nM.

As to `O=C(NCc1cccc(C(F)(F)F)c1F)C(CCC(=O)N1CCN(C2CCCCC2)CC1)N1C(=O)C(N2C(=O)OCC2c2ccccc2)C1C=Cc1ccccc1` (stereo not drawn) [Example 180], the IC50 is 0.33 nM and the Ki amounted to 0.2 nM.

With `O=C(CC[C@@H](C(=O)N[C@@H]1CCCc2ccccc21)N1C(=O)[C@@H](N2C(=O)OC[C@@H]2c2ccccc2)[C@H]1/C=C/c1ccccc1)N[C@@H]1CCN(Cc2ccccc2)C1` [Example 221AD], the IC50 is approximately 50 nM.

With `COc1ccccc1CNC(=O)C(CCC(=O)N1CCN(C2CCCCC2)CC1)N1C(=O)C(N2C(=O)OCC2c2ccccc2)C1C=Cc1ccccc1` (stereo not drawn) [Example 220], the IC50 amounted to 5.3 nM and the inhibition constant (Ki) amounted to 3.26 nM.

On to `O=C(NCc1ccccc1)C(CCC(=O)N1CCN(C2CCCCC2)CC1)N1C(=O)C(N2C(=O)OCC2c2ccccc2)C1C=Cc1ccccc1` (stereo not drawn) [Example 191], for which the half-maximal inhibitory concentration (IC50) turned out to be 2.92 nM and the Ki stood at 1.79 nM.

For the molecule `O=C(NC1CCCc2ccccc21)C(CCC(=O)N1CCN(C2CCCCC2)CC1)N1C(=O)C(N2C(=O)OCC2c2ccccc2)C1C=Cc1cccc(C(F)(F)F)c1` (stereo not drawn) [Example 246], the IC50 turned out to be 2.1 nM and the Ki was determined as 1.3 nM.

(Values after patent US11628160B2, “Compositions and methods for treating brain injury” (Azevan Pharmaceuticals, Inc., priority 2017, dated 2023).)
